One data set relates to Male Sunkus murinus. Put plainly: Vomiting test on male Sunkus. Type of data set: in vivo. Particulars: for Number of animals with vomiting/Number of tested animals: Dose (mg) 10, intraperitoneal, observed for 1 hour. As for the experimental part:
Vomiting Test on Male Sunkus
Male Sunkus murinus weighing about 60 g, 5 to 15 animals/group, were used in the test According to the method of Matsuki et al. (Japan J. Pharmacol., 48, 303 (1988)), each Sunkus animal was isolated and left in a wire-netting cage (15 cm width×21 cm length×15 cm height). Each test compound was suspended in physiological saline containing 0.5% Tween 80 and then intraperitoneally (i.p.) administered into each animal in a dose of 10 μl/g. […] The results were expressed in the number of animals with vomiting/the number of tested animals in the group given the test compound.
Compounds P and Q were used as the comparative compounds.

In a further data set the test system is TNF α. Put plainly: Inhibitory activity on production of TNF α in mouse model with LPS-induced sepsis. Type of data set: in vivo, BALB/c male mice. The following applies: for Ratio of inhibition (%) of TNF α production: Dose (mg) 30, orally administered 90 minutes before LPS i.v., serum TNF α by ELISA 1 hour after LPS; for inhibitory activity on production of TNF α (in words): summary of Table 3. A general note: In an ELISA, binding on a coated surface is turned into a signal by an enzyme label.

The target of data set [1] is T1, Recombinant Human PDE IV Enzyme (HSPDE4A) (Homo sapiens, UniProt P27815).
T1 construct: except that 223 amino acids have been deleted from the N-terminal thereof; made in house; host or cells: E. coli
T1 sequence (P27815 224-886 limits assumed): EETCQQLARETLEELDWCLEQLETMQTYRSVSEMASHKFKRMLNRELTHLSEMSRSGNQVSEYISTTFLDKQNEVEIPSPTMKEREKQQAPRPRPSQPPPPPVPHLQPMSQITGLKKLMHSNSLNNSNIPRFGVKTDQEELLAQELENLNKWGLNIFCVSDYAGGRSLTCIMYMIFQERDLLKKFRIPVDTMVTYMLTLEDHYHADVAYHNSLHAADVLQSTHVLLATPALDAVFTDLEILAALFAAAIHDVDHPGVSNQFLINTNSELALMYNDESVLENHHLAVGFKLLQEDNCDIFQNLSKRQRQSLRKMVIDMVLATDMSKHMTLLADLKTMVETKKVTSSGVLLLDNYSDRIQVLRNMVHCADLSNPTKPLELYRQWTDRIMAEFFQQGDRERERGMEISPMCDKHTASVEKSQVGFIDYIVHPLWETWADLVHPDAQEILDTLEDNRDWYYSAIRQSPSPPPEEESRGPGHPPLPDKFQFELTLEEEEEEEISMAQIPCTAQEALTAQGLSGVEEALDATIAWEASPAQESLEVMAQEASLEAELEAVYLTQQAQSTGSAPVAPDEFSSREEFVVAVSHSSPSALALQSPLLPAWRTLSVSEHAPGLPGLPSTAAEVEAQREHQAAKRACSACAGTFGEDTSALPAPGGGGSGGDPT
Put plainly: Inhibition test on recombinant human PDE IV enzyme. The class given is biochemical. The following applies: [3H]cAMP substrate. As for the experimental part: Inhibition Test on Recombinant Human PDE IV Enzyme
Human phosphodiesterase cDNA (HSPDE4A) was isolated from testicles. Its predicted amino acid sequence is identical with the sequence (HSPDE4A5) reported by Bolger, G. et al. (Mol. Cell. Biol., 6558 (1993)) except that 223 amino acids have been deleted from the N-terminal thereof. This recombinant protein was expressed by an E. coli expression plasmid and then purified. The PDE activity was measured in the following 2-step process according to the method of Kincaid, R. and Manganiello, V. [Method. Enzymol., 159, 457 (1988)]. The substrate used was [^3H]cAMP (final concentration: […]), and the reaction was performed in a standard mixture containing N,N-bis(2-hydroxyethyl)-2-aminoethanesulfonic acid (50 mmol/l, pH 7.2), MgCl2 (1 mmol/l) and soybean trypsin inhibitor (0.1 mg/ml). The reaction was initiated by adding the enzyme thereto, and the mixture was incubated at 30° C. for 10 to 30 minutes. The reaction was quenched by hydrochloric acid, and the formed 5′-AMP was completely decomposed with […]. This sample was subjected to chromatography on DEAE-Sephadex A-25, and the eluted [^3H]adenosine was counted with a scintillation counter. The test compound was added after dissolved (concentration: 1.7%) in DMSO.

Another data set can be described thus: Water solubility. The class given is physicochemical. The procedure:
Further, Compound (I) has an amide structure containing a piperazine ring at the 2-position of the benzofuran skeleton and can be converted into a pharmaceutically acceptable acid addition salt. […] For example, Compound 1 upon conversion into monohydrochloride becomes dissolved in water at a ratio of 7.4 μg/ml.

[2] abbreviates: concentration of test compound 10^−7 mol/L.
[3] abbreviates: concentration of test compound 10^−8 mol/L.

Converted amounts (≈) assume the structure as drawn. Where a name gives a salt, the structure may show the parent alone. Read-outs that look alike come from different tables or passages of the source. A value given as a limit tells only on which side of the number the result lay.

A word on the melting point: it is the temperature of the solid-liquid transition. As usually defined, the solubility is the dissolved amount per volume that the medium holds. `COc1ccc(C(=O)Nc2c(Cl)cncc2Cl)c2cc(C(=O)N3CCN(C)CC3)oc12` [Compound 1, 4-(3,5-Dichloro-4-pyridyl)carbamoyl-7-methoxy-2-(4-methyl-1-piperazinyl)carbonylbenzofuran] displayed a melting point of 224 to 225 °C. In addition, the “Number of animals with vomiting/Number of tested animals” value in the data set with Male Sunkus murinus is 0/5. In addition, the “Ratio of inhibition (%) of TNF α production” value with TNF α came to 68%. Further, the “Ratio of inhibition (%)” value in data set [1] (setting [2]) worked out at 75%. Also, the “Ratio of inhibition (%)” value in data set [1] (setting [3]) was 25%. In addition, the solubility in “Water solubility” (Compound 1 upon conversion into monohydrochloride, read-out: dissolved in water (water solubility)) stood at 7.4 µg/mL (≈ 16 µM).

Take `COc1ccc(C(=O)Nc2c(Cl)cncc2Cl)c2cc(C(=O)N3CCN(CCO)CC3)oc12` [Compound 2, 4-(3,5-Dichloro-4-pyridyl)carbamoyl-2-[4-(2-hydroxyethyl)-1-piperazinyl]carbonyl-7-methoxybenzofuran]: the melting point is 164 to 165 °C. Moreover, the “Number of animals with vomiting/Number of tested animals” value with Male Sunkus murinus is 0/5. In addition, the “Ratio of inhibition (%) of TNF α production” value with TNF α is 65%. Also, the “Ratio of inhibition (%)” value in data set [1] (setting [2]) is 72%. Besides, in data set [1] (setting [3]), the “Ratio of inhibition (%)” value is given as 22%.

Compound `COc1ccc(C(=O)Cc2c(Cl)cncc2Cl)c2cc(C(=O)N3CCN(C)CC3)oc12` [Compound 13, 4-[2-(3,5-Dichloro-4-pyridyl)-1-oxoethyl]-2-(4-methyl-1-piperazinyl)carbonyl-7-methoxybenzofuran] displayed a melting point of 160 to 161 °C. Also, in the data set with Male Sunkus murinus, the “Number of animals with vomiting/Number of tested animals” value was 0/5. Moreover, in the data set on TNF α, the “Ratio of inhibition (%) of TNF α production” value came to 65%.

Take `COc1ccc(C(=O)Cc2c(Cl)cncc2Cl)c2cc(C(=O)N3CCN(CCO)CC3)oc12` [Compound 14, 4-[2-(3,5-Dichloro-4-pyridyl)-1-oxoethyl]-2-[4-(2-hydroxyethyl)-1-piperazinyl]carbonyl-7-methoxybenzofuran]: the melting point lay in the range of 155 to 156 °C. Further, in the data set on Male Sunkus murinus, the “Number of animals with vomiting/Number of tested animals” value was 0/5. Also, in the data set with TNF α, the “Ratio of inhibition (%) of TNF α production” value came out at 65%.

For the compound `COc1ccc(C(=O)Cc2ccncc2)c2c1OC1(CCCC1)C2` [Compound P, 7-methoxy-4-[1-oxo-2-(4-pyridyl)ethyl]-spiro[2,3-dihydrobenzofuran-2,1′-cyclopentane].hydrochloride, reference compound], in the data set on Male Sunkus murinus, the “Number of animals with vomiting/Number of tested animals” value is given as 5/5. Besides, the “vomiting as a side effect (in words)” value in the data set on Male Sunkus murinus (summary of Table 4) is on record as “caused vomiting”. For the same compound, in the data set on TNF α, the “Ratio of inhibition (%) of TNF α production” value came to 81% and the “inhibitory activity on production of TNF α (in words)” value is “high inhibitory activity”.

For the compound `COc1ccc(C(=O)Nc2c(Cl)cncc2Cl)c2cc(C(=O)c3ccccc3)oc12` [Compound Q, 2-benzoyl-4-(3,5-dichloro-4-pyridyl)carbamoyl-7-methoxybenzofuran, reference compound], in the data set on Male Sunkus murinus, the “Number of animals with vomiting/Number of tested animals” value is 0/5. In the data set on TNF α, the “Ratio of inhibition (%) of TNF α production” value is listed as 30% and the “inhibitory activity on production of TNF α (in words)” value was “high inhibitory activity”. The solubility in the data set “Water solubility” (read-out: water solubility) was not above 1 µg/mL.

The values above are taken from US6395738B1, “Benzofuran derivatives” (Kyowa Hakko Kogyo Co., Ltd., priority 1997, dated 2002).
